Data reported in BindingDB's records for doi:10.1021/jm000085e (Synaptic Pharmaceutical, 2000).

Test: Binding affinity towards Alpha1D dog adrenergic receptors, using [125I]-HEAT as radioligand.

Compound `C[C@@H]1OC(=O)N(C(=O)NCCCN2CCC(c3ccc(F)cc3)CC2)[C@H]1c1ccc(F)c(F)c1` [4-(3,4-Difluoro-phenyl)-5-methyl-2-oxo-oxazolidine-3-carboxylic acid {3-[4-(4-fluoro-phenyl)-piperidin-1-yl]-propyl}-amide] has a Ki of 133 nM.
